This note sets out measurements from patent publication US12421211B2, “Heterocyclic compounds” (Hoffmann-La Roche Inc., priority 2021, dated 2025).

The term IC90 denotes the point of the concentration-response curve where the effect stands at 90%.

Structures can show the parent of a compound that is named as a salt.

One assay deals with Acinetobacter baumannii ATCC17961. Nature of the assay: Antimicrobial susceptibility testing: 90% growth inhibitory concentration (IC90) determination. In kind it is cell-based. Particulars: Acinetobacter baumannii, ATCC17961, 16 h, 90% growth inhibitory concentration, Acinetobacter baumannii ATCC17961, Iso-Sensitest broth, OD 600 nm over 16 h; read-out: ATCC 17961 IC90. Summed up: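 A. baumannii ATCC17961 at ~5×10^5 CFU/ml in Iso-Sensitest broth exposed to 10-point twofold dilutions (e.g. 50–0.097 μM final), 35±2° C. OD600 read every 20 minutes over 16h; IC50 and IC90 derived from inhibition during logarithmic growth.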
For `COCCn1ncc(-c2ccc(-c3cnc(C(=O)Nc4ccc(C(=O)N5CCN(C(=O)CCC[N+](C)(CCCN)CC(=O)O)CC5)c(Cl)c4)n3C)c(C)c2F)c1C` (stereo not drawn) [Example O5, 3-aminopropyl-(carboxymethyl)-[4-[4-[2-chloro-4-[[5-[3-fluoro-4-[1-(2-methoxyethyl)-5-methyl-pyrazol-4-yl]-2-methyl-phenyl]-1-methyl-imidazole-2-carbonyl]amino]benzoyl]piperazino]-4-keto-butyl]-methyl-ammonium. 1:12,2,2-trifluoroacetic acid; 2,2,2-trifluoroacetate], the IC90 worked out at 200 nM.
Still for that read-out and setting: the result for `COc1ccc(-c2[nH]ncc2-c2ccc(-c3cnc(C(=O)Nc4ccc(C(=O)N5CCN(C(=O)C6CCNCC6)CC5)c(Cl)c4)n3C)c(F)n2)cc1` [Example E17, N-[3-chloro-4-[4-(piperidine-4-carbonyl)piperazine-1-carbonyl]phenyl]-5-[2-fluoro-6-[5-(4-methoxyphenyl)-1H-pyrazol-4-yl]-3-pyridyl]-1-methyl-imidazole-2-carboxamide; formic acid] reads 710 nM.
Same read-out and setting: the result for `COCCn1ncc(-c2ccc(-c3cnc(C(=O)Nc4ccc(C(=O)N5CCN(C(=O)C6(N)CC[N+](C)(C)CC6)CC5)c(Cl)c4)n3C)c(F)c2F)c1C` [Example D20, N-[4-[4-(4-amino-1,1-dimethyl-piperidin-1-ium-4-carbonyl)piperazine-1-carbonyl]-3-chloro-phenyl]-5-[2,3-difluoro-4-[1-(2-methoxyethyl)-5-methyl-pyrazol-4-yl]phenyl]-1-methyl-imidazole-2-carboxamide; formate] reads 64 nM; that for `Cc1nn(CCNC(=O)Nc2ccccn2)cc1-c1ccc(-c2cnc(C(=O)Nc3ccc(C(=O)N4CCN(C(=O)C5CC[N+](C)(C)CC5)CC4)c(Cl)c3)n2C)c(F)c1F` [Example H7, N-[3-chloro-4-[4-(1,1-dimethylpiperidin-1-ium-4-carbonyl)piperazine-1-carbonyl]phenyl]-5-[2,3-difluoro-4-[3-methyl-1-[2-(2-pyridylcarbamoylamino)ethyl]pyrazol-4-yl]phenyl]-1-methyl-imidazole-2-carboxamide; formate], 190 nM.
Still for that read-out and setting: the result for `COCCCn1ncc(-c2ccc(-c3cnc(C(=O)Nc4ccc(C(=O)N5CCN(C(=O)[C@@H]6C[C@@H](O)C[N+]6(C)C)CC5)c(Cl)c4)n3C)c(F)c2F)c1C` [Example D12, N-[3-chloro-4-[4-[(2S,4R)-4-hydroxy-1,1-dimethyl-pyrrolidin-1-ium-2-carbonyl]piperazine-1-carbonyl]phenyl]-5-[2,3-difluoro-4-[1-(3-methoxypropyl)-5-methyl-pyrazol-4-yl]phenyl]-1-methyl-imidazole-2-carboxamide; formate] reads 200 nM; that for `Cc1nn(CC(=O)Nc2ccccc2F)cc1-c1ccc(-c2cnc(C(=O)Nc3ccc(C(=O)N4CCN(C(=O)C5CC[N+](C)(C)CC5)CC4)c(Cl)c3)n2C)c(F)c1F` [Example G6, N-[3-chloro-4-[4-(1,1-dimethylpiperidin-1-ium-4-carbonyl)piperazine-1-carbonyl]phenyl]-5-[2,3-difluoro-4-[1-[2-(2-fluoroanilino)-2-oxo-ethyl]-3-methyl-pyrazol-4-yl]phenyl]-1-methyl-imidazole-2-carboxamide; formate], 140 nM; that for `COCCn1ncc(-c2ccc(-c3cnc(C(=O)Nc4ccc(C(=O)N5CCN(C(=O)[C@@H]6C[C@@H](O)CN6)CC5)c(C)c4)n3C)c(F)c2F)c1C` [Example E8, 5-[2,3-difluoro-4-[1-(2-methoxyethyl)-5-methyl-pyrazol-4-yl]phenyl]-N-[4-[4-[(2S,4R)-4-hydroxypyrrolidine-2-carbonyl]piperazine-1-carbonyl]-3-methyl-phenyl]-1-methyl-imidazole-2-carboxamide], 200 nM.
Regarding `Cc1nn(CCNC(=O)NC(C)(C)C)cc1-c1ccc(-c2cnc(C(=O)Nc3ccc(C(=O)N4CCN(C(=O)C5CC[N+](C)(C)CC5)CC4)c(Cl)c3)n2C)c(F)c1F` [Example H5, 5-[4-[1-[2-(tert-butylcarbamoylamino)ethyl]-3-methyl-pyrazol-4-yl]-2,3-difluoro-phenyl]-N-[3-chloro-4-[4-(1,1-dimethylpiperidin-1-ium-4-carbonyl)piperazine-1-carbonyl]phenyl]-1-methyl-imidazole-2-carboxamide; formate], the IC90 was 170 nM.
Same read-out and setting: the result for `COCCn1ncc(-c2ccc(-c3cnc(C(=O)Nc4ccc(C(=O)N5CCN(C(=O)[C@H]6[C@@H]7C[N+](C)(C)C[C@@H]76)CC5)c(Cl)c4)n3C)c(F)c2F)c1C` [Example B26, N-[3-chloro-4-[4-[(1R,5S)-3,3-dimethyl-3-azoniabicyclo[3.10]hexane-6-carbonyl]piperazine-1-carbonyl]phenyl]-5-[2,3-difluoro-4-[1-(2-methoxyethyl)-5-methyl-pyrazol-4-yl]phenyl]-1-methyl-imidazole-2-carboxamide; formate] reads 64 nM.
Same read-out and setting: the result for `COCCn1ncc(-c2ccc(-c3cnc(C(=O)Nc4ccc(C(=O)N5CCN(C(=O)CN(C)C)CC5)c(Cl)c4)n3C)c(F)c2F)c1C` [Example D32, N-[3-chloro-4-[4-[2-(dimethylamino)acetyl]piperazine-1-carbonyl]phenyl]-5-[2,3-difluoro-4-[1-(2-methoxyethyl)-5-methyl-pyrazol-4-yl]phenyl]-1-methyl-imidazole-2-carboxamide; 2,2,2-trifluoroacetic acid] reads 52 nM.
Same read-out and setting: the result for `Cn1c(-c2ccc(-c3c[nH]nc3C(F)(F)F)c(F)c2)cnc1C(=O)Nc1ccc(C(=O)N2CCN(C(=O)C3CCN(CC(N)=O)CC3)CC2)c(Cl)c1` [Example E12, N-[4-[4-[1-(2-amino-2-oxo-ethyl)piperidine-4-carbonyl]piperazine-1-carbonyl]-3-chloro-phenyl]-5-[3-fluoro-4-[3-(trifluoromethyl)-1H-pyrazol-4-yl]phenyl]-1-methyl-imidazole-2-carboxamide; 2,2,2-trifluoroacetic acid] reads 150 nM; that for `Cc1nn(CC(=O)NC2CCC(F)(F)CC2)cc1-c1ccc(-c2cnc(C(=O)Nc3ccc(C(=O)N4CCN(C(=O)C5CC[N+](C)(C)CC5)CC4)c(Cl)c3)n2C)c(F)c1F` [Example G26, N-[3-chloro-4-[4-(1,1-dimethylpiperidin-1-ium-4-carbonyl)piperazine-1-carbonyl]phenyl]-5-[4-[1-[2-[(4,4-difluorocyclohexyl)amino]-2-oxo-ethyl]-3-methyl-pyrazol-4-yl]-2,3-difluoro-phenyl]-1-methyl-imidazole-2-carboxamide; formate], 100 nM.
For the compound `COCCn1ncc(-c2ccc(-c3cnc(C(=O)Nc4ccc(C(=O)N5CCN(C(=O)C6CC[N+](C)(C)CC6)CC5)c(Cl)c4)n3C)c(OC)c2F)c1C` [Example F23, N-[3-chloro-4-[4-(1,1-dimethylpiperidin-1-ium-4-carbonyl)piperazine-1-carbonyl]phenyl]-5-[3-fluoro-2-methoxy-4-[1-(2-methoxyethyl)-5-methyl-pyrazol-4-yl]phenyl]-1-methyl-imidazole-2-carboxamide; formate], the IC90 was 750 nM.

The same assay, now with this note: Acinetobacter baumannii, ATCC17961, 16 h, read-out: ATCC 17961 IC90.
`COCCn1ncc(-c2ccc(-c3cnc(C(=O)Nc4ccc(C(=O)N5CCC(N(C)C(=O)C6CC[N+](CC(=O)O)(CC7CNC7)CC6)CC5)c(Cl)c4)n3C)c(F)c2F)c1C` (stereo not drawn) [Example O1, 2-[1-(azetidin-3-ylmethyl)-4-[[1-[2-chloro-4-[[5-[2,3-difluoro-4-[1-(2-methoxyethyl)-5-methyl-pyrazol-4-yl]phenyl]-1-methyl-imidazole-2-carbonyl]amino]benzoyl]-4-piperidyl]-methyl-carbamoyl]piperidin-1-ium-1-yl]acetic acid formate]: the IC90 came out at 354 nM.
For the compound `COCCn1cc(-c2ccc(-c3cnc(C(=O)Nc4ccc(C(=O)N5CCN(C(=O)[C@H]6CC[N@@+](CC(=O)O)(CC7CNC7)CC6)CC5)c(Cl)c4)n3C)c(F)c2F)c(C)n1` [Example Q3, trans 2-[1-(azetidin-3-ylmethyl)-4-[4-[2-chloro-4-[[5-[2,3-difluoro-4-[1-(2-methoxyethyl)-3-methyl-pyrazol-4-yl]phenyl]-1-methyl-imidazole-2-carbonyl]amino]benzoyl]piperazine-1-carbonyl]piperidin-1-ium-1-yl]acetic acid; formate], the 90% effect concentration (IC90) was 359 nM.
The same measure, in the same setting: the result for `COCCn1cc(-c2ccc(-c3cnc(C(=O)Nc4ccc(C(=O)N5CCN(C(=O)[C@H]6CC[N@+](CC(=O)O)(CC7CNC7)CC6)CC5)c(Cl)c4)n3C)c(F)c2F)c(C)n1` [Example Q4, cis 2-[1-(azetidin-3-ylmethyl)-4-[4-[2-chloro-4-[[5-[2,3-difluoro-4-[1-(2-methoxyethyl)-3-methyl-pyrazol-4-yl]phenyl]-1-methyl-imidazole-2-carbonyl]amino]benzoyl]piperazine-1-carbonyl]piperidin-1-ium-1-yl]acetic acid formate;] reads 195 nM; that for `COCCn1nc(C)c(-c2ccc(-c3cnc(C(=O)Nc4ccc(C(=O)N5CCN(C(=O)C6CC[N+](C)(CCO)CC6)CC5)c(Cl)c4)n3C)c(F)c2F)c1C` (stereo not drawn) [Example B8, N-[3-chloro-4-[4-[1-(2-hydroxyethyl)-1-methyl-piperidin-1-ium-4-carbonyl]piperazine-1-carbonyl]phenyl]-5-[2,3-difluoro-4-[1-(2-methoxyethyl)-3,5-dimethyl-pyrazol-4-yl]phenyl]-1-methyl-imidazole-2-carboxamide; formate], 280 nM; that for `COCCn1cc(-c2ccc(-c3cnc(C(=O)Nc4ccc(C(=O)N5CCN(C(=O)[C@H]6CC[N@+](CC(=O)O)(CC7CNC7)CC6)CC5)c(C)c4)n3C)c(F)c2F)c(C)n1` [Example O8, cis 2-[1-(azetidin-3-ylmethyl)-4-[4-[4-[[5-[2,3-difluoro-4-[1-(2-methoxyethyl)-3-methylpyrazol-4-yl]phenyl]-1-methylimidazole-2-carbonyl]amino]-2-methylbenzoyl]piperazine-1-carbonyl]piperidin-1-ium-1-yl]acetic acid formate], 245 nM.
